Reference: article PMC4669708 (Cell Death & Disease, 2015)

Legend:
Test in all cases: c-ponatinib pulldown LC-MS/MS
Format in all cases: binding
CCT2 = target: T1, CCT2 (Homo sapiens, UniProt P78371)
T1 sequence (P78371 1-535): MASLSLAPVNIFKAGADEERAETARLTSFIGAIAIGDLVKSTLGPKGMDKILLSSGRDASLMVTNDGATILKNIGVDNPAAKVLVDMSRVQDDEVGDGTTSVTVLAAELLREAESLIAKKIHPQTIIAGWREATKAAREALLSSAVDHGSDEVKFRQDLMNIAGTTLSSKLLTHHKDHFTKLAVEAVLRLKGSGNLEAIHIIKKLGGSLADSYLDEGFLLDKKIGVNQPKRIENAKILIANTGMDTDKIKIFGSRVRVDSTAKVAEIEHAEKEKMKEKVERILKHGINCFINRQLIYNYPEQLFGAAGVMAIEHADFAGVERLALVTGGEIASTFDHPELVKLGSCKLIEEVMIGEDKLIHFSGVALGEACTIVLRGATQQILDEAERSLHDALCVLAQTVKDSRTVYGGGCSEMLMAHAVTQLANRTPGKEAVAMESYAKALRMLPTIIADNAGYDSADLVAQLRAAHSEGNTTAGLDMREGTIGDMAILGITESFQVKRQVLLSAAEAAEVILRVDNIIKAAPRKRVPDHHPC
Summary of the method: (§1)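 Read-out: interaction P-value combining Mascot scores, Phenyx scores and spectral counts (Fisher's method), plus fold reduction of median spectral counts on free-compound competition. Proteins were enriched from 10 mg cell lysate on c-ponatinib beads, then trypsin-digested for LC-MS/MS.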

HSPA9 = HSPA9 (Homo sapiens, UniProt P38646)
Sequence of HSPA9 (P38646 47-679): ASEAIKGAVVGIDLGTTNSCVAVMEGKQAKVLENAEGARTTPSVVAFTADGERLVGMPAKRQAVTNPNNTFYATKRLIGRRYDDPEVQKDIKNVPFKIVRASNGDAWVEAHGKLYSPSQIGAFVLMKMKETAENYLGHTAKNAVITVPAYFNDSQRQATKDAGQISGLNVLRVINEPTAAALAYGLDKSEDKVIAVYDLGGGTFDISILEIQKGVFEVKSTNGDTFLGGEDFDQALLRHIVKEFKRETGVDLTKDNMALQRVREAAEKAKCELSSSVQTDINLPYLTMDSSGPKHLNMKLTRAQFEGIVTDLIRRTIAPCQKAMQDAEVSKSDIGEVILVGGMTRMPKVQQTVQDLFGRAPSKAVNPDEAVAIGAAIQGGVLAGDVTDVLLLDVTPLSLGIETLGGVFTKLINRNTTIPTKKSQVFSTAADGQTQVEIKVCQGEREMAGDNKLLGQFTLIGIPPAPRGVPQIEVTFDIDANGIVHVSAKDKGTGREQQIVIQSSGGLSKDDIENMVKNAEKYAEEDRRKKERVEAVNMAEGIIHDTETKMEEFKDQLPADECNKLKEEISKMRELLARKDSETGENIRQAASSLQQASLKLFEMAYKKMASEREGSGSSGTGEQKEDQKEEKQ
Summary of the method: as §1

IRAK1 = IRAK1 (Homo sapiens, UniProt P51617)
Sequence of IRAK1 (P51617 whole entry): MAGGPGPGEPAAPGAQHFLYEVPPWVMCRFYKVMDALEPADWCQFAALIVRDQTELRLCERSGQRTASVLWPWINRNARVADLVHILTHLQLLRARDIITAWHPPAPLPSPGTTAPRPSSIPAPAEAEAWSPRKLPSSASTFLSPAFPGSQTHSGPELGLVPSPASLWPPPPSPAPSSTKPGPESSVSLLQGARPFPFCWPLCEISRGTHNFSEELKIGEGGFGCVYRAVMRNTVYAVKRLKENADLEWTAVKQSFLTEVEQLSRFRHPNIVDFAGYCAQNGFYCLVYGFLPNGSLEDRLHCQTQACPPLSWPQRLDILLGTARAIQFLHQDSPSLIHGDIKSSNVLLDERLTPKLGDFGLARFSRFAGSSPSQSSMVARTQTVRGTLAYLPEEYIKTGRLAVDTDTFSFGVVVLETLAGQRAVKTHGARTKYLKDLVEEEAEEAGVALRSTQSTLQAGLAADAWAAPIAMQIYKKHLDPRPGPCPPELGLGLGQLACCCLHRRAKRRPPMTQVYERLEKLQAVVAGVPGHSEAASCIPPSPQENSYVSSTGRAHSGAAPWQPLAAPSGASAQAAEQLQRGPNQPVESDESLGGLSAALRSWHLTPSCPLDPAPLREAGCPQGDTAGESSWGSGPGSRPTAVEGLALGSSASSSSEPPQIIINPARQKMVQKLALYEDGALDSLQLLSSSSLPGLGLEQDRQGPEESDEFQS
Summary of the method: as §1

MAP3K1 = MAP3K1 (Homo sapiens, UniProt Q13233)
Sequence of MAP3K1 (Q13233 whole entry): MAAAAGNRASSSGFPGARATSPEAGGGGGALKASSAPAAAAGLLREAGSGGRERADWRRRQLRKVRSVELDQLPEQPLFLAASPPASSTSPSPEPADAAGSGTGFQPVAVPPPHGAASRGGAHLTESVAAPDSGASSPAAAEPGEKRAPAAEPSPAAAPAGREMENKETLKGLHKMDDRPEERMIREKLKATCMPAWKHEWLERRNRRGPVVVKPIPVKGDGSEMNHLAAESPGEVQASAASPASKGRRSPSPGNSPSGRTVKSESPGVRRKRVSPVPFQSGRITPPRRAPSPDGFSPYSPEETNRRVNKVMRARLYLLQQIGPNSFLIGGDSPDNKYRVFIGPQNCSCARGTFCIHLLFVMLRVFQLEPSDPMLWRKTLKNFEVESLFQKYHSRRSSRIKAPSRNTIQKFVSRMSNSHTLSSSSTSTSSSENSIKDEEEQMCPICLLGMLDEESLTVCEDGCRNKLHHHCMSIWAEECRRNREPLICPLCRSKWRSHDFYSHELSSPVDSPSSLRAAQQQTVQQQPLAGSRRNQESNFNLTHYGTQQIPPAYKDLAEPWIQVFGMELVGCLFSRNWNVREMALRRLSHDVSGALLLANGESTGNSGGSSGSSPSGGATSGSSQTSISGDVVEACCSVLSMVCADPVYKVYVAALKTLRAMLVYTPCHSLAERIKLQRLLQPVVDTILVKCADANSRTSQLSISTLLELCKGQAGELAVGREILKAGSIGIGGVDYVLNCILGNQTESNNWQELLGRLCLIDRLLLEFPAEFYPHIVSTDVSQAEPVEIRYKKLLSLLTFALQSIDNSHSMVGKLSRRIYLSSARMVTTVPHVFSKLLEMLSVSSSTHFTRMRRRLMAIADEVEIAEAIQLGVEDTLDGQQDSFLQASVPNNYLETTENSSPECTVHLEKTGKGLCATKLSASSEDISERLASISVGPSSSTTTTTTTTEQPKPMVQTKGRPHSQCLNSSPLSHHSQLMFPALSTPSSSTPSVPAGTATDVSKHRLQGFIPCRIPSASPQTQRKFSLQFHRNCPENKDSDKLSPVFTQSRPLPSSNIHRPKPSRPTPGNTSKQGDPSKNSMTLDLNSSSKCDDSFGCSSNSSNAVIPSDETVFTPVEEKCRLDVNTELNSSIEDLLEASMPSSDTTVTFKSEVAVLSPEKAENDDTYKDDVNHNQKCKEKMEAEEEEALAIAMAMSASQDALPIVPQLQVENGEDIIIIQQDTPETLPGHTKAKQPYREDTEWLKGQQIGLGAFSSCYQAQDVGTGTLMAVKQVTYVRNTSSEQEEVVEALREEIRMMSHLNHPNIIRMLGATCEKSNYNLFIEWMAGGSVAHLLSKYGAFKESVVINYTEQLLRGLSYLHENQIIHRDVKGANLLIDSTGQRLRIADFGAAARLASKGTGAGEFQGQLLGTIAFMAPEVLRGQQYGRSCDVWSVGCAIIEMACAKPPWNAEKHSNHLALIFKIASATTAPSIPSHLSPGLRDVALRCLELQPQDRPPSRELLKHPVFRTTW
Summary of the method: as §1

STK10 = STK10 (Homo sapiens, UniProt O94804)
Sequence of STK10 (O94804 whole entry): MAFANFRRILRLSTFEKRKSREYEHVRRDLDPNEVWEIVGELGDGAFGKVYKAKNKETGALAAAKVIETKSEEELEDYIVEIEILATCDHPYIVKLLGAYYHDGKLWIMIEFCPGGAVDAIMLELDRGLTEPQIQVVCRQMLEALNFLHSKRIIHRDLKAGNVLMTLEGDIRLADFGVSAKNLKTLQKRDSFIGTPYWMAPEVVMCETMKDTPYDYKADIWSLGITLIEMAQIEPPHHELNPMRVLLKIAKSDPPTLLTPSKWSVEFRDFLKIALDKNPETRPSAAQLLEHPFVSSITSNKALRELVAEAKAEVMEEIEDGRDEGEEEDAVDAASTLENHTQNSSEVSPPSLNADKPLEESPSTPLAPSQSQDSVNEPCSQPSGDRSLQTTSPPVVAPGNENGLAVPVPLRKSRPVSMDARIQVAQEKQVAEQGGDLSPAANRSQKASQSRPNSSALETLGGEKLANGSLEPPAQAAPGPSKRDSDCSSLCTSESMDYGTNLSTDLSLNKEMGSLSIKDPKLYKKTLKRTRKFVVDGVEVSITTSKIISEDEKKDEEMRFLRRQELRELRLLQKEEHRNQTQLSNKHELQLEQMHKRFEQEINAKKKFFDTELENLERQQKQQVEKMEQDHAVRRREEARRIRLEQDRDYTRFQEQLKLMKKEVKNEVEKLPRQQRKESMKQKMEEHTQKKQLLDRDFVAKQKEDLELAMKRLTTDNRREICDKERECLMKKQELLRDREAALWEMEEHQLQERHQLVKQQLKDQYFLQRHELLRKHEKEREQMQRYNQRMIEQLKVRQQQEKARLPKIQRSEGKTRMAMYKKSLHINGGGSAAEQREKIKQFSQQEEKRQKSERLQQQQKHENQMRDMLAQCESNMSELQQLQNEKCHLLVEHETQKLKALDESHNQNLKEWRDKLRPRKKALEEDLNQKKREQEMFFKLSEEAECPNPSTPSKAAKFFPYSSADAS
Summary of the method: as §1

YWHAZ = target: T2, YWHAZ (Homo sapiens, UniProt P63104)
T2 sequence (P63104 1-245): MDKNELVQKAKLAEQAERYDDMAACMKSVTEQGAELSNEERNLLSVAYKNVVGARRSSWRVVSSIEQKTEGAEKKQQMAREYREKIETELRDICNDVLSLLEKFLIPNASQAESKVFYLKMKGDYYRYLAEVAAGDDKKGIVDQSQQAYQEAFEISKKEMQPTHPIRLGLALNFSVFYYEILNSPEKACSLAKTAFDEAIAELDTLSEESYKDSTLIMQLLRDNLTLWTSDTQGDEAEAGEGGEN
Summary of the method: as §1

Av. SC comp. (CCT2; + free ponatinib): 0 | Total SC comp. (CCT2; + free ponatinib): 0 | Av. SC (CCT2; no competitor): 3.5 | Total SC (CCT2; no competitor): 14 | Av. SC comp. (HSPA9; + free ponatinib): 0 | Total SC comp. (HSPA9; + free ponatinib): 0 | Av. SC (HSPA9; no competitor): 3.25 | Total SC (HSPA9; no competitor): 13 | Av. SC comp. (IRAK1; + free ponatinib): 4 | Total SC comp. (IRAK1; + free ponatinib): 16 | Av. SC (IRAK1; no competitor): 24.25 | Total SC (IRAK1; no competitor): 97 | Av. SC comp. (MAP3K1; + free ponatinib): 0 | Total SC comp. (MAP3K1; + free ponatinib): 0 | Av. SC (MAP3K1; no competitor): 9 | Total SC (MAP3K1; no competitor): 36 | Av. SC comp. (STK10; + free ponatinib): 0 | Total SC comp. (STK10; + free ponatinib): 0 | Av. SC (STK10; no competitor): 5.5 | Total SC (STK10; no competitor): 22 | Av. SC comp. (YWHAZ; + free ponatinib): 2.5 | Total SC comp. (YWHAZ; + free ponatinib): 10 | Av. SC (YWHAZ; no competitor): 10.5 | Total SC (YWHAZ; no competitor): 42
Structure (SMILES): Cc1ccc(C(=O)Nc2ccc(CN3CCN(CCCN)CC3)c(C(F)(F)F)c2)cc1C#Cc1cnc2cccnn12 [c-ponatinib]
